Reference: PubChem BioAssay AID226 (DTP/NCI, 2004)
Values joined by “and” are separate entries in the source; they are usually repeats but may differ in a detail not shown here. Equal values may be shown once. Inconclusive results and toxic doses are left out.

Test system: B6C3F1 mice, intracerebral ependymoblastoma, median survival T/C
Experiment: NCI In Vivo Anticancer Drug Screen. Data for tumor model Ependymoblastoma (intracerebral) in B6C3F1 mice
Conditions: endpoint: median survival time, higher = longer survival
Method: The antitumor activity of compounds was measured in mice bearing transplantable tumors. Survival or tumor size were measured and the results are expressed as the measurement made in the treated group (T) divided by the measurement made in the vehicle treated control group (C). The tumor model used in this assay is Ependymoblastoma (intracerebral) in B6C3F1 mice

[1] = dose: 16.0 mg/kg/injection, schedule: Q01DX005 (ip), vehicle: saline with Tween-80
[2] = dose: 32.0 mg/kg/injection, schedule: Q01DX005 (ip), vehicle: saline with Tween-80
[3] = dose: 64.0 mg/kg/injection, schedule: Q01DX005 (ip), vehicle: saline with Tween-80

With `CN1c2c(nc(N)[nH]c2=O)NCC1CCNc1ccc(C(=O)NC(CCC(=O)O)C(=O)O)cc1` (stereo not drawn) the T/C (dose: 50.0 mg/kg/injection, schedule: Q#ADX018 (ip), vehicle: saline) was 114 % of control, the T/C (dose: 100.0 mg/kg/injection, schedule: Q01DX009 (ip), vehicle: saline) was 111 % of control and 114 % of control and the T/C (dose: 100.0 mg/kg/injection, schedule: Q12HX018 (ip), vehicle: saline) was 122 % of control. The T/C (dose: 100.0 mg/kg/injection, schedule: Q#A X018 (ip), vehicle: saline) was 195 % of control, the T/C (dose: 100.0 mg/kg/injection, schedule: Q#ADX018 (ip), vehicle: saline) was 114 % of control and the T/C (dose: 200.0 mg/kg/injection, schedule: Q01DX009 (ip), vehicle: saline) was 105 % of control and 115 % of control. For the same compound, the T/C (dose: 200.0 mg/kg/injection, schedule: Q#A X018 (ip), vehicle: saline) was 216 % of control, the T/C (dose: 200.0 mg/kg/injection, schedule: Q#ADX018 (ip), vehicle: saline) was 119 % of control and the T/C (dose: 400.0 mg/kg/injection, schedule: Q01DX009 (ip), vehicle: saline) was 109 % of control. For the same compound, the T/C (dose: 400.0 mg/kg/injection, schedule: Q#A X018 (ip), vehicle: saline) was 190 % of control, the T/C (dose: 800.0 mg/kg/injection, schedule: Q01DX009 (ip), vehicle: saline) was 121 % of control and 122 % of control and the T/C (dose: 1600.0 mg/kg/injection, schedule: Q01DX009 (ip), vehicle: saline) was 120 % of control.
For `C(COCCOCC1CO1)OCCOCC1CO1` (stereo not drawn), the T/C (dose: 25.0 mg/kg/injection, schedule: Q01DX005 (ip), vehicle: saline) was 100 % of control and 118 % of control, the T/C (dose: 50.0 mg/kg/injection, schedule: Q01DX005 (ip), vehicle: saline) was 97 % of control and 121 % of control and the T/C (dose: 100.0 mg/kg/injection, schedule: Q01DX005 (ip), vehicle: saline) was 97 % of control and 100 % of control. The T/C (dose: 200.0 mg/kg/injection, schedule: Q01DX005 (ip), vehicle: saline) was 105 % of control.
With `[N-]=[N+]=CC(=O)CCC(N)C(=O)O` (stereo not drawn) the T/C (dose: 0.05 mg/kg/injection, schedule: Q01DX005 (ip), vehicle: saline) was 111 % of control, the T/C (dose: 0.06 mg/kg/injection, schedule: Q01DX005 (ip), vehicle: saline) was 93 % of control and 117 % of control and the T/C (dose: 0.1 mg/kg/injection, schedule: Q01DX005 (ip), vehicle: saline) was 97 % of control. The T/C (dose: 0.12 mg/kg/injection, schedule: Q01DX005 (ip), vehicle: saline) was 111 % of control and 114 % of control and the T/C (dose: 0.2 mg/kg/injection, schedule: Q01DX005 (ip), vehicle: saline) was 122 % of control.
For `Nc1nc(=S)c2ncn(C3CC(O)C(CO)O3)c2[nH]1` (stereo not drawn), the T/C (dose: 4.0 mg/kg/injection, schedule: Q01DX005 (ip), vehicle: saline with Tween-80) was 93 % of control and 96 % of control, the T/C (dose: 8.0 mg/kg/injection, schedule: Q01DX005 (ip), vehicle: saline with Tween-80) was 103 % of control and the T/C [1] was 92 % of control. The T/C [2] was 91 % of control and 102 % of control and the T/C [3] was 100 % of control and 90 % of control.
In the case of `CC([NH-])C[NH-].[Cl][Pt+2][Cl]` (stereo not drawn), the T/C (dose: 2.0 mg/kg/injection, schedule: Q01DX005 (ip), vehicle: dextrose) is reported as 94 % of control.
`CN(C)N=Nc1ccc(C(=O)O)cc1` was tested, and the T/C [2] was 122 % of control.
In the case of `CC/C(=C(/CC)c1ccc(O)cc1)c1ccc(O)cc1`, the T/C [1] is reported as 102 % of control, the T/C [2] is reported as 102 % of control and the T/C [3] is reported as 109 % of control. The T/C (dose: 128.0 mg/kg/injection, schedule: Q01DX005 (ip), vehicle: saline with Tween-80) was 104 % of control.
With `CCCN(C)C(=O)N(CCCl)N=O` the T/C (dose: 19.4 mg/kg/injection, schedule: Q01DX001 (ip), vehicle: DMSO) was 116 % of control, the T/C (dose: 31.3 mg/kg/injection, schedule: Q01DX001 (ip), vehicle: saline + alcohol) was 320 % of control and the T/C (dose: 32.4 mg/kg/injection, schedule: Q01DX001 (ip), vehicle: DMSO) was 169 % of control. For the same compound, the T/C (dose: 54.0 mg/kg/injection, schedule: Q01DX001 (ip), vehicle: DMSO) was 239 % of control, the T/C (dose: 62.5 mg/kg/injection, schedule: Q01DX001 (ip), vehicle: saline + alcohol) was 324 % of control and the T/C (dose: 90.0 mg/kg/injection, schedule: Q01DX001 (ip), vehicle: DMSO) was 368 % of control. For the same compound, the T/C (dose: 125.0 mg/kg/injection, schedule: Q01DX001 (ip), vehicle: saline + alcohol) was 110 % of control, the T/C (dose: 150.0 mg/kg/injection, schedule: Q01DX001 (ip), vehicle: DMSO) was 366 % of control and the T/C (dose: 250.0 mg/kg/injection, schedule: Q01DX001 (ip), vehicle: DMSO) was 365 % of control.
With `CCCC(=O)OCC1OC(n2cnc3c(=S)nc[nH]c32)C(OC(=O)CCC)C1OC(=O)CCC` (stereo not drawn) the T/C (dose: 25.0 mg/kg/injection, schedule: Q01DX005 (ip), vehicle: saline with Tween-80) was 103 % of control and the T/C (dose: 50.0 mg/kg/injection, schedule: Q01DX005 (ip), vehicle: saline with Tween-80) was 105 % of control.
With `COc1cc(NC(=O)CN(CCCl)CCCl)cc(OC)c1OC` the T/C (dose: 25.0 mg/kg/injection, schedule: Q01DX009 (ip), vehicle: saline with Tween-80) was 113 % of control and the T/C (dose: 50.0 mg/kg/injection, schedule: Q01DX009 (ip), vehicle: saline with Tween-80) was 113 % of control.
With `CC1CCC(NC(=O)N(CCCl)N=O)CC1` (stereo not drawn) the T/C (dose: 0.5 mg/kg/injection, schedule: Q01DX009 (ip), vehicle: Klucel (hydroxypropylcellulose) (HPC)) was 108 % of control, the T/C (dose: 1.0 mg/kg/injection, schedule: Q01DX005 (ip), vehicle: other) was 110 % of control and the T/C (dose: 1.0 mg/kg/injection, schedule: Q01DX009 (ip), vehicle: Klucel (hydroxypropylcellulose) (HPC)) was 106 % of control. For the same compound, the T/C (dose: 2.0 mg/kg/injection, schedule: Q01DX005 (ip), vehicle: other) was 160 % of control, the T/C (dose: 2.0 mg/kg/injection, schedule: Q01DX005 (ip), vehicle: saline) was 102 % of control and the T/C (dose: 2.0 mg/kg/injection, schedule: Q01DX009 (ip), vehicle: Klucel (hydroxypropylcellulose) (HPC)) was 112 % of control. The T/C (dose: 4.0 mg/kg/injection, schedule: Q01DX005 (ip), vehicle: other) was 119 % of control, the T/C (dose: 4.0 mg/kg/injection, schedule: Q01DX005 (ip), vehicle: saline) was 108 % of control and the T/C (dose: 6.25 mg/kg/injection, schedule: Q01DX001 (ip), vehicle: saline + alcohol) was 118 % of control. The T/C (dose: 8.0 mg/kg/injection, schedule: Q01DX005 (ip), vehicle: other) was 160 % of control, the T/C (dose: 8.3 mg/kg/injection, schedule: Q01DX001 (ip), vehicle: DMSO) was 104 % of control and the T/C (dose: 13.8 mg/kg/injection, schedule: Q01DX001 (ip), vehicle: DMSO) was 108 % of control. The T/C (dose: 16.0 mg/kg/injection, schedule: Q01DX001 (ip), vehicle: other) was 124 % of control, the T/C (dose: 16.0 mg/kg/injection, schedule: Q01DX005 (ip), vehicle: other) was 300 % of control and the T/C (dose: 23.0 mg/kg/injection, schedule: Q01DX001 (ip), vehicle: DMSO) was 122 % of control. The T/C (dose: 25.0 mg/kg/injection, schedule: Q01DX001 (ip), vehicle: saline + alcohol) was 182 % of control, the T/C (dose: 38.4 mg/kg/injection, schedule: Q01DX001 (ip), vehicle: DMSO) was 112 % of control and the T/C (dose: 50.0 mg/kg/injection, schedule: Q01DX001 (ip), vehicle: saline + alcohol) was 235 % of control. For the same compound, the T/C (dose: 64.0 mg/kg/injection, schedule: Q01DX001 (ip), vehicle: DMSO) was 118 % of control, the T/C (dose: 64.0 mg/kg/injection, schedule: Q01DX001 (ip), vehicle: other) was 191 % of control and the T/C (dose: 128.0 mg/kg/injection, schedule: Q01DX001 (ip), vehicle: other) was 204 % of control.
For `CC1CN1C(=O)NCCCCCCNC(=O)N1CC1C` (stereo not drawn), the T/C (dose: 1.25 mg/kg/injection, schedule: Q01DX005 (ip), vehicle: Klucel (hydroxypropylcellulose) (HPC)) was 105 % of control, the T/C (dose: 2.5 mg/kg/injection, schedule: Q01DX005 (ip), vehicle: Klucel (hydroxypropylcellulose) (HPC)) was 108 % of control and the T/C (dose: 5.0 mg/kg/injection, schedule: Q01DX005 (ip), vehicle: Klucel (hydroxypropylcellulose) (HPC)) was 120 % of control. The T/C (dose: 10.0 mg/kg/injection, schedule: Q01DX005 (ip), vehicle: Klucel (hydroxypropylcellulose) (HPC)) was 109 % of control.
`O=NN(CCF)C(=O)NC1C(O)CCCC1O` (stereo not drawn) was tested, and the T/C (dose: 5.18 mg/kg/injection, schedule: Q01DX005 (ip), vehicle: Klucel (hydroxypropylcellulose) (HPC)) was 189 % of control, the T/C (dose: 8.64 mg/kg/injection, schedule: Q01DX005 (ip), vehicle: Klucel (hydroxypropylcellulose) (HPC)) was 230 % of control and the T/C (dose: 13.0 mg/kg/injection, schedule: Q01DX001 (ip), vehicle: saline) was 115 % of control. For the same compound, the T/C (dose: 14.4 mg/kg/injection, schedule: Q01DX005 (ip), vehicle: Klucel (hydroxypropylcellulose) (HPC)) was 357 % of control, the T/C (dose: 24.0 mg/kg/injection, schedule: Q01DX005 (ip), vehicle: Klucel (hydroxypropylcellulose) (HPC)) was 111 % of control and the T/C (dose: 36.0 mg/kg/injection, schedule: Q01DX001 (ip), vehicle: saline) was 159 % of control. The T/C (dose: 60.0 mg/kg/injection, schedule: Q01DX001 (ip), vehicle: saline) was 247 % of control and the T/C (dose: 100.0 mg/kg/injection, schedule: Q01DX001 (ip), vehicle: saline) was 157 % of control.
